One molecule from paper PMC10492809, “A Bischler-Napieralski and homo-Mannich sequence enables diversified syntheses of sarpagine alkaloids and analogues” (Nature Communications, 2023) can be followed below.

“And” between values parts separate entries of the source, which are not always exact repeats. Equal values may be shown once. Read-outs that look alike come from different tables or passages of the source.

Common to all, as to assay type: cell-based
In one experiment the test system is A549. As to the kind of experiment: MTT cell viability assay, A549. The gist of the method:
(§1)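 Here the normal lung epithelial BEAS-2B line and the tumour lines were treated alike: overnight-adhered cells (3000/well) received graded compound doses for 72 h, followed by 4 h MTT at 37 °C and OD490 reading after DMSO.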
In general terms: Tetrazolium assays rely on reduction of a dye to a coloured formazan, in cell work by metabolically active cells.

The test system of a further experiment is CT26. As to the kind of experiment: MTT cell viability assay, CT26. The gist of the method:
as §1

A further experiment has as its system A375. The experiment is described as follows: MTT cell viability assay, A375. The gist of the method:
as §1

The next experiment relates to cancer cell lines. As to the kind of experiment: In vitro cancer cell assays (antiproliferation, cell line not given). The following applies: improvement over vellosimine (4). The procedure: All cell lines were cultured at 37 °C with 5% CO2 in a humidified incubator. HeLa cells were grown in MEM (Gibco) supplemented with 10% fetal bovine serum (FBS, Hyclone) and 1% penicillin/streptomycin (Gibco). MIA PaCa-2, MDA-MB-231, A549, MCF-7, A375 and BEAS-2B cells were grown in DMEM (Gibco) supplemented with 10% FBS and 1% penicillin/streptomycin. CT26, and HCT116 cells were grown in RPMI-1640 supplemented with 10% FBS and 1% penicillin/streptomycin. All cell lines were purchased from the National Collection of Authenticated Cell Cultures (China).
The antiproliferative activities of the prepared compounds against tested cell lines were evaluated using a standard (MTT)-based colorimetric assay. Cells were plated at a density of 3000 cells/well in 96-well plates and allowed to adhere overnight. Then cells were treated with varying concentrations of synthesized compounds for 72 h. At the end of treatment, 20 μL of thiazolyl blue tetrazolium bromide (MTT) solution (5 mg/mL) was added to each well. Cells were incubated for an additional 4 h at 37 °C and then the medium was removed and replaced with 200 μL of DMSO. The absorbance (OD490) was read on a microplate reader (SpectraMax i3x, Molecular Devices, US). In all experiments, three replicate wells were used for each drug concentration. Each assay was performed at least three times. The IC50 values were calculated by GraphPad Prism 9, which were the mean values derived from three independent experiments.

For experiment [1], the system named is MDA-MB-231 cells. The experiment is described as follows: Cell death manner assay (MTT, co-incubation with cell death inhibitors). As to the method:
[The source words this procedure for another cell line and reports this cell line under the same test.] To investigate the mechanism of 15ai in cancer cell proliferation inhibition, the manners of cell death were analyzed. The cell apoptosis inhibitor Z-VAD-FMK (Z-VAD), cell necrosis inhibitor Necrostatin-1 (Necro-1), ferroptosis inhibitor Ferrostatin-1 (Fer-1), and ROS inhibitor N-acetylcysteine (NAC) were purchased and stored at −20 °C. A375 cells were seeded with a density of 5000 cells/100 µL/well into 96 well plates. After 12 h, 15ai was added at different concentrations. Following that 10 µM Z-VAD, 10 µM Nerco-1, 10 µM Fer-1, and 5 mM NAC were added and co-incubated with 15ai, respectively, for 72 h. Then, 20 µL MTT solution (5 mg/mL) was added and incubated at 37 °C for an additional 4 h. Then, the supernatant was discarded, and 200 μL DMSO was added to dissolve the precipitate. After 15 min, the absorbance (OD490) was read on a microplate reader (SpectraMax i3x, Austria). In all experiments, three replicate wells were used for each drug concentration. Each assay was performed at least three times.

The test system of experiment [2] is MDA-MB-231 cells. As to the kind of experiment: Measurement of glutathione levels. The procedure: Cells were plated at a density of 2 × 10^5 cells/well in 6-well plates and allowed to adhere overnight. After being treated as indicated, cells were collected and prepared for measurement of total intracellular glutathione (GSH + GSSG) using the assay kit (Beyotime, S0052) according to the manufacturer’s instructions. […]

Experiment [3] concerns MDA-MB-231 cells. As to the kind of experiment: Measurement of lipid (BODIPY-C11) and cytosolic (DCFH-DA) ROS. The settings on record: 12 h; suppressed by Fer-1 (10 μM). The procedure:
Lipid ROS was analyzed by flow cytometry: cells were plated at a density of 2 × 10^5 cells/well in 6-well plates. After treatment as indicated, cells were stained with 5 μM BODIPY-C11 dye (diluted in serum-containing DMEM) for 30 min at 37 °C in an incubator. For cytosolic ROS, cells were stained with 10 μM DCF (diluted in serum-free DMEM). Following staining, cells were pelleted and resuspended in 1 mL of PBS. Fluorescence intensity was measured by the analytical flow cytometry (CytoFLEX, […], US). A minimum of 10,000 cells were analyzed for each condition. Data analysis was performed using the FlowJo 7.6.1 software. The starting cell population gating by Forward Scatter and Side Scatter was used to make sure doublet exclusion. Only single cell was used for analysis.

The test system of experiment [4] is MDA-MB-231 cells. As to the kind of experiment: Transmission electron microscopy of cell morphology. The settings on record: 15ai 4 μM, 24 h. As to the method:
Cells were plated at a density of 6 × 10^5 cells/dish in 10 cm culture dishes and allowed to adhere overnight. Then cells were treated with DMSO or compound 15ai for 24 h. Cells were fixed with 2.5% glutaraldehyde in […] phosphate buffer, followed by 1% OsO4 for 2 h. After dehydration, cells were embedded in epoxy resin. The ultrathin sections were made by an ultramicrotome and then stained with lead citrate and uranyl acetate. Images were acquired using the transmission electron microscope (Hitachi H-7650 100kv, Hitachi, Japan). Each experiment was repeated three times independently with similar results.

On to `C=C=C1CN2[C@H]3C[C@H]1[C@H](C=O)[C@@H]2Cc1c3n(S(=O)(=O)c2ccc(C)cc2)c2ccc(Cl)cc12` [Compound 15ai], for which the IC50 – broadly, the concentration at which inhibition is half-maximal – was 13 µM in the experiment on A549 (Homo sapiens, A549, 72 h, MTT, 72 h, mean of at least three independent experiments, read-out: IC50 A549); 14.6 µM in the experiment on A549 (Homo sapiens, A549, source data sheet, single values of three experiments, read-out: MTT IC50 A549); 12.5 µM and 11.8 µM with A549 (source data sheet, single values of three experiments, read-out: MTT IC50 A549); 5.98 µM in the experiment with CT26 (Mus musculus, CT26, 72 h, MTT, 72 h, mean of at least three independent experiments, read-out: IC50 CT26); 7.11 µM in the experiment with CT26 (Mus musculus, CT26, source data sheet, single values of three experiments, read-out: MTT IC50 CT-26); 5.83 µM and 4.99 µM in the experiment on CT26 (source data sheet, single values of three experiments, read-out: MTT IC50 CT-26). Moreover, the IC50 was 2.64 µM in the experiment on A375 (Homo sapiens, A-375, 72 h, MTT, 72 h, mean of at least three independent experiments, read-out: IC50 A375); 2.78 µM in the experiment with A375 (Homo sapiens, A-375, source data sheet, single values of three experiments, read-out: MTT IC50 A375); 1.96 µM and 3.18 µM with A375 (source data sheet, single values of three experiments, read-out: MTT IC50 A375). For the same molecule, the “anticancer activity compared to vellosimine (4)” value in the experiment on cancer cell lines is reported as “tenfold-improved”. The viability at 10 µM with MDA-MB-231 cells [1] (Homo sapiens, MDA-MB-231, 72 h, read-out: Percentage of viability, Fer-1 / NAC experiment, 15ai 10 μM, Fer-1 10 μM, NAC 5 mM, 72 h, single replicates) was 21.2%. Further, the “reversal of 15ai-induced cell death by Z-VAD or Necro-1” value in the experiment on MDA-MB-231 cells [1] (MDA-MB-231 cells, addition of apoptosis inhibitor Z-VAD-FMK or necroptosis inhibitor necrostatin-1) is reported as “could not reverse cell death”. Moreover, in the experiment on MDA-MB-231 cells [1] (co-existence of ferroptosis inhibitor Fer-1 or ROS inhibitor NAC), the “rescue of cell viability by Fer-1 or NAC” value is on record as “remarkably rescued cell viability”. Moreover, the “GSH levels (% of control)” value is 52.357 % of control and 54.35 % of control in the experiment with MDA-MB-231 cells [2] (15ai 4 μM per Fig. 4, single replicates); 80.51 % of control and 78.85 % of control in the experiment with MDA-MB-231 cells [2] ((15ai 2 μM per Fig. 4), single replicates); 27.587 % of control and 22.5 % of control in the experiment with MDA-MB-231 cells [2] ((15ai 8 μM per Fig. 4), single replicates). Also, in the experiment with MDA-MB-231 cells [2] (Homo sapiens, MDA-MB-231, column 2 (15ai 2 μM per Fig. 4), single replicates), the GSH level (% of control) at 2 µM is 84.6%. The GSH level (% of control) at 4 µM in the experiment on MDA-MB-231 cells [2] (Homo sapiens, MDA-MB-231, column 4 (15ai 4 μM per Fig. 4), single replicates) was found to be 61.6%. In the experiment with MDA-MB-231 cells [2] (Homo sapiens, MDA-MB-231, column 8 (15ai 8 μM per Fig. 4), single replicates), this molecule came in with a GSH level (% of control) at 8 µM of 23.2%. Also, the GSH levels entry with MDA-MB-231 cells [2] (result in words, 15ai 0, 2, 4 and 8 μM) is on record as “dose-dependently decreased”. The “lipid ROS and cytosolic ROS accumulation” value in the experiment with MDA-MB-231 cells [3] is “induce lipid ROS and cytosolic ROS accumulation significantly”. For the same molecule, in the experiment on MDA-MB-231 cells [4], the “cell morphology by TEM” value is given as “mitochondrial swelling occurred”.
